According to ChEMBL document CHEMBL1151812, “Homotyrosine-containing cyanopeptolins 880 and 960 and anabaenopeptins 908 and 915 from Planktothrix agardhii CYA 126/8” (J Nat Prod, 2009):
The source made the active and inactive calls. No cut-off for these calls is given here. Numbered stars: 1 amine (or outer) side, 2 acyl side, 3 side chain; on linkers, the order of the positions; unused ones are H or OH. Bridge positions count the residues as written; N and C are the ends. Square brackets hold non-standard residues; d marks the D form. Peptide text beside a SMILES is read from it. NMehTyr = CN[C@@H](CCc1ccc(O)cc1)C(=O)O; hTyr = N[C@@H](CCc1ccc(O)cc1)C(=O)O; CO = O=C([*:1])[*:2]

What was measured:
[1] = Inhibition of chymotrypsin up to 100 ug/ml
[2] = Inhibition of trypsin up to 100 ug/ml
[3] = biological target: T1, Carboxypeptidase A1 (Homo sapiens) (UniProt P15085); experiment: Inhibition of carboxypeptidase A up to 20 ug/ml
T1 sequence (whole entry): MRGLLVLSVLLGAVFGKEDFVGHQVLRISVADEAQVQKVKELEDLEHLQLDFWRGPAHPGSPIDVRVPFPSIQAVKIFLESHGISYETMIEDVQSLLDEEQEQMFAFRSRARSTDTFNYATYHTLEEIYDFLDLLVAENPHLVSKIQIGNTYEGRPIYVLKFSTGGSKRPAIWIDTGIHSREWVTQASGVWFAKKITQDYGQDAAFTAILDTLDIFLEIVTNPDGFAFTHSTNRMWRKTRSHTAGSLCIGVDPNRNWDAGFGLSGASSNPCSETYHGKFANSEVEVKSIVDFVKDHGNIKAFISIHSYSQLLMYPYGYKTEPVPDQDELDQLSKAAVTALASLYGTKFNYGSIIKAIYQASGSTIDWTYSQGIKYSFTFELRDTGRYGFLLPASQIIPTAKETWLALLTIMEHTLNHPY

Carboxypeptidase A1 = biological target: T2, Carboxypeptidase A1 (Homo sapiens, UniProt P15085); experiment: Inhibition of carboxypeptidase A
T2 sequence (P15085 whole entry): T1 sequence (whole entry)

Structure (SMILES) | Activity [1] | Activity [2] | Activity [3] | IC50 (Carboxypeptidase A1) [nM]
CC[C@H](C)[C@@H]1NC(=O)[C@H](CCc2ccc(O)cc2)N(C)C(=O)[C@H](CCc2ccc(O)cc2)NC(=O)[C@H](C(C)C)NC(=O)[C@H](NC(=O)N[C@@H](CCCNC(=N)N)C(=O)O)CCCCNC1=O ({Arg-CO}-[dK]V[hTyr][NMehTyr]I; lactam 1-C) | inactive | inactive | inactive | 
CC[C@H](C)[C@@H]1NC(=O)[C@H](CCc2ccc(O)cc2)N(C)C(=O)[C@H](CCc2ccc(O)cc2)NC(=O)[C@H](C(C)C)NC(=O)[C@H](NC(=O)N[C@@H](Cc2ccc(O)cc2)C(=O)O)CCCCNC1=O [ANABAENOPEPTIN 915] ({Tyr-CO}-[dK]V[hTyr][NMehTyr]I; lactam 1-C) | inactive | inactive |  | 131
